These results are taken from US10556888B2, “Pyrazole compounds or salts thereof, preparation methods therefor, herbicidal compositions and use thereof” (QINGDAO KINGAGROOT CHEMICAL COMPOUNDS CO., LTD, priority 2015, dated 2020).

Holding throughout (assay type): in vivo
Series [1] concerns Monocotyledonous and dicotyledonous weed. Put plainly: Post-emergence test experiment, weed control effect (Table 2). The arrangement: key to weed control effect, Setaria viridis (level) / weed control effect, Rorippa indica (level) / weed control effect, Abutilon theophrasti (level) / weed control effect, Echinochloa crus-galli (level) / weed control effect, Digitaria sanguinalis (level): Level 10: completely dead; Level 9: above 90% growth inhibition rate; Level 8: above 80% growth inhibition rate; Level 7: above 70% growth inhibition rate; Level 6: above 60% growth inhibition rate; Level 5: above 50% growth inhibition rate; Level 4: above 30% growth inhibition rate; Level 3: above 20% growth inhibition rate; Level 2: above 10% growth inhibition rate; Level 1: above 1-10% growth inhibition rate; Level 0: no effect. The following applies: 3 weeks after spraying, greenhouse. The method, boiled down: (§1)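 Compounds, dissolved in acetone, mixed with Tween 80 and diluted in water, were sprayed post-emergence onto greenhouse-grown weeds and crops at the 2-3 leaf stage (2-3 weeks post-sowing). Plants then grown 3 more weeks in the greenhouse before evaluation.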

The test system of series [2] is main crop (wheat, corn, rice, soybean, cotton, oilseed, millet and sorghum). The series is described as follows: Post-emergence test experiment, main crops (Table 2). The arrangement: key: Level 10: completely dead; Level 9: above 90% growth inhibition rate; Level 8: above 80% growth inhibition rate; Level 7: above 70% growth inhibition rate; Level 6: above 60% growth inhibition rate; Level 5: above 50% growth inhibition rate; Level 4: above 30% growth inhibition rate; Level 3: above 20% growth inhibition rate; Level 2: above 10% growth inhibition rate; Level 1: above 1-10% growth inhibition rate; Level 0: no effect. To be noted: 3 weeks after spraying, greenhouse. The method, boiled down:
as §1

Series [3] has as its system Echinochloa crus-galli. The series is described as follows: Weed control effect evaluation in transplanted rice field. The arrangement: key: Level 10: completely dead; Level 9: above 90% growth inhibition rate; Level 8: above 80% growth inhibition rate; Level 7: above 70% growth inhibition rate; Level 6: above 60% growth inhibition rate; Level 5: above 50% growth inhibition rate; Level 4: above 30% growth inhibition rate; Level 3: above 20% growth inhibition rate; Level 2: above 10% growth inhibition rate; Level 1: above 1-10% growth inhibition rate; Level 0: no effect. The following applies: transplanted rice field pot test, application rate 500 g/ha, 14 days after treatment. How it is done: (§2) Rice field soil was loaded into a 1/1,000,000 ha pot. The seeds of Echinochloa, Scirpus juncoides, Bidens tripartite and Sagittaria trifolia were sowed and gently covered with soil, then left to stand still in greenhouse in the state of 0.5-1 cm of water storage. The tuber of Sagittaria trifolia was planted in the next day or 2 days later. It was kept at 3-4 cm of water storage thereafter. The weeds were treated by dripping the WP or SC water diluents prepared according to the common preparation method of the compounds of the present invention with pipette homogeneously to achieve specified effective amount when Echinochloa, Scirpus juncoides and Bidens tripartite reached 0.5 leaf stage and Sagittaria trifolia reached the time point of primary leaf stage.
(§3) The fertility condition of Echinochloa, Scirpus juncoides, Bidens tripartite and Sagittaria trifolia 14 days after the treatment of the compound of the invention and the fertility condition of rice 21 days after the treatment of the compound of the invention respectively with the naked eye.
(§4) The seeds of Echinochloa crus-galli, Scirpus juncoides and Monochoria vaginalis were collected from Heilongjing and Jiangsu Province of China.

Series [4] relates to Monochoria vaginalis. The description is as above. The following applies: transplanted rice field pot test, application rate 500 g/ha, 14 days after treatment. The arrangement: key: Level 10: completely dead; Level 9: above 90% growth inhibition rate; Level 8: above 80% growth inhibition rate; Level 7: above 70% growth inhibition rate; Level 6: above 60% growth inhibition rate; Level 5: above 50% growth inhibition rate; Level 4: above 30% growth inhibition rate; Level 3: above 20% growth inhibition rate; Level 2: above 10% growth inhibition rate; Level 1: above 1-10% growth inhibition rate; Level 0: no effect. How it is done:
as §2, §3, §4

The subject of series [5] is Scirpus juncoides. The description is as above. Set-up: key: Level 10: completely dead; Level 9: above 90% growth inhibition rate; Level 8: above 80% growth inhibition rate; Level 7: above 70% growth inhibition rate; Level 6: above 60% growth inhibition rate; Level 5: above 50% growth inhibition rate; Level 4: above 30% growth inhibition rate; Level 3: above 20% growth inhibition rate; Level 2: above 10% growth inhibition rate; Level 1: above 1-10% growth inhibition rate; Level 0: no effect. To be noted: transplanted rice field pot test, application rate 500 g/ha, 14 days after treatment. How it is done:
as §2, §3, §4

Series [6] has as its system Rice. The series is described as follows: Transplanted rice safety evaluation. Set-up: key: Level 10: completely dead; Level 9: above 90% growth inhibition rate; Level 8: above 80% growth inhibition rate; Level 7: above 70% growth inhibition rate; Level 6: above 60% growth inhibition rate; Level 5: above 50% growth inhibition rate; Level 4: above 30% growth inhibition rate; Level 3: above 20% growth inhibition rate; Level 2: above 10% growth inhibition rate; Level 1: above 1-10% growth inhibition rate; Level 0: no effect. The following applies: transplanted 3 leaf stage japonica rice, application rate 500 g/ha, 21 days after treatment. How it is done:
In addition, the rice field soil that loaded into the 1/1,000,000 ha pot was leveled to keep water storage at 3-4 cm depth. The 3 leaf stage rice (japonica rice) was transplanted at 3 cm of transplanting depth the next day. The compound of the present invention was treated by the same way after 5 days of transplantation. The fertility condition of Echinochloa, Scirpus juncoides, Bidens tripartite and Sagittaria trifolia 14 days after the treatment of the compound of the invention and the fertility condition of rice 21 days after the treatment of the compound of the invention respectively with the naked eye.

Regarding `Cc1ccn(Cc2c(S(C)(=O)=O)ccc(C(=O)c3c(C)nn(C)c3OC(=O)c3cn(C)nc3C)c2Cl)n1` [Compound 02], in series [1] (120 g/ha), the “weed control effect, Abutilon theophrasti (level)” value was 8 (Level 8: above 80% growth inhibition rate); the “weed control effect, Bidens pilosa (level)” value was 9 (Level 9: above 90% growth inhibition rate); the “weed control effect, Digitaria sanguinalis (level)” value is on record as 2 (Level 2: above 10% growth inhibition rate); the “weed control effect, Echinochloa crus-galli (level)” value amounted to 10. In series [1] (120 g/ha), the “weed control effect, Rorippa indica (level)” value stood at 10 and the “weed control effect, Setaria viridis (level)” value is recorded as 6 (Level 6: above 60% growth inhibition rate). Besides, in series [2] (120 g/ha), the “effect on crop, corn (level)” value came out at 0; the “effect on crop, rice (level)” value is on record as 1 (Level 1: above 1-10% growth inhibition rate); the “effect on crop, wheat (level)” value stood at 0. For the same compound, the “Weed control effect, Echinochloa crus-galli (activity level)” value in series [3] was 10. For the same compound, the “Weed control effect, Monochoria vaginalis (activity level)” value in series [4] is given as 9 (Level 9: above 90% growth inhibition rate). The “Weed control effect, Scirpus juncoides (activity level)” value in series [5] was 10. The “Rice (safety, activity level)” value in series [6] was 0.
On to `Cc1ccn(Cc2c(S(C)(=O)=O)ccc(C(=O)c3cnn(C)c3OC(=O)c3cn(C)nc3C)c2Cl)n1` [Compound 06], for which, in series [1] (120 g/ha), the “weed control effect, Abutilon theophrasti (level)” value was 7 (Level 7: above 70% growth inhibition rate); the “weed control effect, Bidens pilosa (level)” value was 9 (Level 9: above 90% growth inhibition rate); the “weed control effect, Digitaria sanguinalis (level)” value is listed as 2 (Level 2: above 10% growth inhibition rate); the “weed control effect, Echinochloa crus-galli (level)” value was determined as 10. Further, in series [1] (120 g/ha), the “weed control effect, Rorippa indica (level)” value was 10 and the “weed control effect, Setaria viridis (level)” value is reported as 6 (Level 6: above 60% growth inhibition rate). Further, in series [2] (120 g/ha), the “effect on crop, corn (level)” value is recorded as 0; the “effect on crop, rice (level)” value is reported as 1 (Level 1: above 1-10% growth inhibition rate); the “effect on crop, wheat (level)” value amounted to 0. In series [3], the “Weed control effect, Echinochloa crus-galli (activity level)” value stood at 10. Further, the “Weed control effect, Monochoria vaginalis (activity level)” value in series [4] came to 10. Moreover, the “Weed control effect, Scirpus juncoides (activity level)” value in series [5] was found to be 10. In addition, in series [6], the “Rice (safety, activity level)” value is 1 (Level 1: above 1-10% growth inhibition rate).
Take `Cc1nn(C)cc1C(=O)Oc1c(C(=O)c2ccc(S(C)(=O)=O)c(COCC3CCCO3)c2Cl)c(C)nn1C(C)C` (centres unmarked) [Compound 101]: in series [1] (250 g/ha), the “weed control effect, Abutilon theophrasti (level)” value is reported as 7 (Level 7: above 70% growth inhibition rate); the “weed control effect, Bidens pilosa (level)” value is 7 (Level 7: above 70% growth inhibition rate); the “weed control effect, Digitaria sanguinalis (level)” value is recorded as 6 (Level 6: above 60% growth inhibition rate); the “weed control effect, Echinochloa crus-galli (level)” value is 9 (Level 9: above 90% growth inhibition rate). In series [1] (250 g/ha), the “weed control effect, Rorippa indica (level)” value came to 10 and the “weed control effect, Setaria viridis (level)” value was 7 (Level 7: above 70% growth inhibition rate). Also, in series [2] (250 g/ha), the “effect on crop, corn (level)” value is 1 (Level 1: above 1-10% growth inhibition rate); the “effect on crop, rice (level)” value is reported as 8 (Level 8: above 80% growth inhibition rate); the “effect on crop, wheat (level)” value was determined as 0.
In the case of `Cn1cc(Cl)c(C(=O)Oc2c(C(=O)c3ccc(S(C)(=O)=O)c(COCC(F)F)c3Cl)cnn2C)n1` [Compound 102], in series [1] (30 g/ha), the “weed control effect, Abutilon theophrasti (level)” value is 7 (Level 7: above 70% growth inhibition rate); the “weed control effect, Bidens pilosa (level)” value was 7 (Level 7: above 70% growth inhibition rate); the “weed control effect, Digitaria sanguinalis (level)” value is reported as 7 (Level 7: above 70% growth inhibition rate); the “weed control effect, Echinochloa crus-galli (level)” value is recorded as 10. In addition, in series [1] (30 g/ha), the “weed control effect, Rorippa indica (level)” value is reported as 10 and the “weed control effect, Setaria viridis (level)” value is recorded as 6 (Level 6: above 60% growth inhibition rate). In series [2] (30 g/ha), the “effect on crop, corn (level)” value is reported as 1 (Level 1: above 1-10% growth inhibition rate); the “effect on crop, rice (level)” value is 5 (Level 5: above 50% growth inhibition rate); the “effect on crop, wheat (level)” value was found to be 0.
With `Cc1cc(C)n(Cc2c(S(C)(=O)=O)ccc(C(=O)c3c(C)nn(C(C)C)c3OC(=O)c3nn(C)cc3Cl)c2Cl)n1` [Compound 103], in series [1] (120 g/ha), the “weed control effect, Abutilon theophrasti (level)” value is on record as 7 (Level 7: above 70% growth inhibition rate); the “weed control effect, Bidens pilosa (level)” value is 7 (Level 7: above 70% growth inhibition rate); the “weed control effect, Digitaria sanguinalis (level)” value is reported as 2 (Level 2: above 10% growth inhibition rate); the “weed control effect, Echinochloa crus-galli (level)” value worked out at 10. Further, in series [1] (120 g/ha), the “weed control effect, Rorippa indica (level)” value turned out to be 10 and the “weed control effect, Setaria viridis (level)” value was 3 (Level 3: above 20% growth inhibition rate). Further, in series [2] (120 g/ha), the “effect on crop, corn (level)” value is given as 1 (Level 1: above 1-10% growth inhibition rate); the “effect on crop, rice (level)” value was 0; the “effect on crop, wheat (level)” value came out at 0.
For `CCOCc1c(S(C)(=O)=O)ccc(C(=O)c2c(CC)nn(CC)c2OC(=O)c2nn(C)cc2Cl)c1Cl` [Compound 104], in series [1] (60 g/ha), the “weed control effect, Abutilon theophrasti (level)” value is 10; the “weed control effect, Bidens pilosa (level)” value is 8 (Level 8: above 80% growth inhibition rate); the “weed control effect, Digitaria sanguinalis (level)” value is given as 10; the “weed control effect, Echinochloa crus-galli (level)” value turned out to be 10. In series [1] (60 g/ha), the “weed control effect, Rorippa indica (level)” value is reported as 10 and the “weed control effect, Setaria viridis (level)” value came out at 10. In series [2] (60 g/ha), the “effect on crop, corn (level)” value was 0; the “effect on crop, rice (level)” value is on record as 4 (Level 4: above 30% growth inhibition rate); the “effect on crop, wheat (level)” value came to 0.
For `CCc1nn(C)c(C(=O)Oc2c(C(=O)c3ccc(S(C)(=O)=O)c(COCC(F)(F)F)c3Cl)cnn2C)c1Cl` [Compound 105], in series [1] (60 g/ha), the “weed control effect, Abutilon theophrasti (level)” value stood at 10; the “weed control effect, Bidens pilosa (level)” value is recorded as 8 (Level 8: above 80% growth inhibition rate); the “weed control effect, Digitaria sanguinalis (level)” value was 9 (Level 9: above 90% growth inhibition rate); the “weed control effect, Echinochloa crus-galli (level)” value is 10. Moreover, in series [1] (60 g/ha), the “weed control effect, Rorippa indica (level)” value is 10 and the “weed control effect, Setaria viridis (level)” value is on record as 10. Besides, in series [2] (60 g/ha), the “effect on crop, corn (level)” value came out at 0; the “effect on crop, rice (level)” value is listed as 4 (Level 4: above 30% growth inhibition rate); the “effect on crop, wheat (level)” value is 0.
Consider `CCc1nn(C)c(C(=O)Oc2c(C(=O)c3ccc(S(C)(=O)=O)c(Cn4cccn4)c3Cl)c(C)nn2C(C)C)c1Cl` [Compound 106], for which, in series [1] (60 g/ha), the “weed control effect, Abutilon theophrasti (level)” value was determined as 10; the “weed control effect, Bidens pilosa (level)” value is listed as 8 (Level 8: above 80% growth inhibition rate); the “weed control effect, Digitaria sanguinalis (level)” value is given as 8 (Level 8: above 80% growth inhibition rate); the “weed control effect, Echinochloa crus-galli (level)” value is 10. For the same compound, in series [1] (60 g/ha), the “weed control effect, Rorippa indica (level)” value was determined as 10 and the “weed control effect, Setaria viridis (level)” value amounted to 10. In series [2] (60 g/ha), the “effect on crop, corn (level)” value is on record as 0; the “effect on crop, rice (level)” value is 1 (Level 1: above 1-10% growth inhibition rate); the “effect on crop, wheat (level)” value was 0.
